In US11648254B2 (Kumquat Biosciences Inc., priority 2021, dated 2023):
Like-named read-outs stand apart in the source and are kept apart here.

Assays:
[1] = biological target: SOS1 (Homo sapiens (Human), UniProt Q07889); assay: Ras-SOS interaction assay (HTRF); assay type: biochemical
[2] = In vitro plasma protein binding (PPB); assay type: in vitro ADME; conditions: percentage of free/unbound compound
[3] = tested on: MIA PaCa-2 cells (K-Ras G12C); assay: Ras-SOS cellular growth inhibition assay (CellTiter-Glo, 3D); assay type: cell-based
Procedure, shortened: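 MIA PaCa-2 cells grown in ultra-low-attachment plates (3D) in DMEM/Ham's F12 with 10% FCS and 2.5% horse serum, treated the day after seeding with a 9-point 3-fold compound series for about 5 days. Viability by CellTiter-Glo luminescence; IC50 from four-parameter fit.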

[4] = tested on: NCI-H1975 cells (EGFR T790M L858R); assay: EGFR-SOS cellular inhibition assay (CellTiter-Glo, 3D); assay type: cell-based
[5] = K-RasG13D utilized, read-out: IC50 inhibition of SOS
[6] = K-RasG13D, read-out: IC50 value against SOS1
[7] = Homo sapiens, MIA PaCa-2, MIA PaCa-2, read-out: IC50 in inhibiting MIA PaCa-2 cell growth
[8] = Homo sapiens, MIA PaCa-2, 120 h, MIA PaCa-2, 3D proliferation, about 5 days, read-out: Bio-Cell-Prolif-3D (MiaPaca2 IC50)
[9] = Homo sapiens, 120 h, NCI-H1975, 3D proliferation, about 5 days, read-out: Bio-Cell-Prolif-3D (H1975 IC50)
[10] = Homo sapiens, NCI-H1975, EGFR T790M L858R, read-out: IC50 in inhibiting growth of NCI-H1975 cell line

Sequence of SOS1 (Q07889 564-1049): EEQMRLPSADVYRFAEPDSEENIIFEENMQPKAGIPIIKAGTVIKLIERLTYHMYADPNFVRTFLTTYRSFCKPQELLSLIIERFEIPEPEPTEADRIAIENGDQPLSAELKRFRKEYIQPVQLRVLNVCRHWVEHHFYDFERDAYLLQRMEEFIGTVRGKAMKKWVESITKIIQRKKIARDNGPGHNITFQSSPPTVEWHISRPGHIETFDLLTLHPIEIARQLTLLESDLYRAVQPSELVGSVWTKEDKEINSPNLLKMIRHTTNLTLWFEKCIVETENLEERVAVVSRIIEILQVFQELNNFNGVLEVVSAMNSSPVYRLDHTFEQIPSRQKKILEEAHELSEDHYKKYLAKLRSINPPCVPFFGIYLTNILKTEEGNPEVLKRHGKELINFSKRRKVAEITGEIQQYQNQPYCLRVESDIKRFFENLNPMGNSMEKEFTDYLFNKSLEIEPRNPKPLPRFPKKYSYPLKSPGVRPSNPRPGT

COc1nc2ncnc(N[C@H](C)c3cccc(C(F)F)c3F)c2cc1C1CCS(=O)(=O)CC1 [Compound 146, (R)-4-(4-((1-(3-(difluoromethyl)-2-fluorophenyl)ethyl)amino)-7-methoxypyrido[2,3-d]pyrimidin-6-yl)tetrahydro-2H-thiopyran 1,1-dioxide]
IC50 [1, 5]: < 100 nM
IC50 [1, 6]: < 50 nM
DMPK-invitro-PPB (Mouse Unbound) [%] [2]: 3.58%
IC50 [3, 7]: < 500 nM
IC50 ([3]; MIA PaCa-2, 3D proliferation, about 5 days, read-out: Bio-Cell-Prolif-3D (MiaPaca2 IC50)): ≤ 1000 nM
IC50 ([4]; NCI-H1975, 3D proliferation, about 5 days, read-out: Bio-Cell-Prolif-3D (H1975 IC50)): ≤ 1000 nM
IC50 ([4]; NCI-H1975, EGFR T790M L858R, read-out: IC50 in inhibiting growth of NCI-H1975 cell line): < 500 nM

COc1nc2nc(C)nc(N[C@H](C)c3cccc(C(F)F)c3F)c2cc1C1CCS(=O)(=O)CC1 [Compound 102, (R)-4-(4-((1-(3-(difluoromethyl)-2-fluorophenyl)ethyl)amino)-7-methoxy-2-methylpyrido[2,3-d]pyrimidin-6-yl)tetrahydro-2H-thiopyran 1,1-dioxide]
IC50 [1, 5]: < 100 nM
IC50 [1, 6]: < 50 nM
DMPK-invitro-PPB (Mouse Unbound) [%] [2]: 2.56%
IC50 [3, 8]: ≤ 1000 nM
IC50 [3, 7]: < 500 nM
IC50 [4, 9]: ≤ 1000 nM
IC50 [4, 10]: < 500 nM

COc1nc2ncnc(N[C@H](C)c3cccc(C(F)(F)F)c3C)c2cc1C1CCN(C2CCOCC2)CC1 [Compound 374, (R)-7-methoxy-N-(1-(2-methyl-3-(trifluoromethyl)phenyl)ethyl)-6-(1-(tetrahydro-2H-pyran-4-yl)piperidin-4-yl)pyrido[2,3-d]pyrimidin-4-amine]
IC50 [1, 6]: < 50 nM
DMPK-invitro-PPB (Mouse Unbound) [%] [2]: 0.45%
IC50 [3, 8]: ≤ 1000 nM
IC50 [3, 7]: < 500 nM
IC50 [4, 9]: ≤ 1000 nM
IC50 [4, 10]: < 500 nM

COc1nc2ncnc(N[C@H](C)c3cccc(C(F)(F)F)c3C)c2cc1N1CCN(C2CCOCC2)CC1 [Compound 160, (R)-7-methoxy-N-(1-(2-methyl-3-(trifluoromethyl)phenyl)ethyl)-6-(4-(tetrahydro-2H-pyran-4-yl)piperazin-1-yl)pyrido[2,3-d]pyrimidin-4-amine]
IC50 [1, 5]: < 100 nM
IC50 [1, 6]: < 50 nM
DMPK-invitro-PPB (Mouse Unbound) [%] [2]: 1.05%
IC50 [3, 8]: ≤ 1000 nM
IC50 [4, 9]: ≤ 1000 nM
IC50 [4, 10]: < 500 nM

COc1nc2nc(C)nc(N[C@H](C)c3cccc(C(F)(F)C(C)(C)O)c3F)c2cc1N1CCN(C(C)C)CC1 [Compound 322, (R)-1,1-difluoro-1-(2-fluoro-3-(1-((6-(4-isopropylpiperazin-1-yl)-7-methoxy-2-methylpyrido[2,3-d]pyrimidin-4-yl)amino)ethyl)phenyl)-2-methylpropan-2-ol]
IC50 [1, 5]: < 100 nM
IC50 [1, 6]: < 50 nM
DMPK-invitro-PPB (Mouse Unbound) [%] [2]: 6.33%
IC50 [3, 8]: ≤ 1000 nM
IC50 [3, 7]: < 500 nM
IC50 [4, 9]: ≤ 1000 nM
IC50 [4, 10]: < 500 nM

COc1nc2nc(C)nc(N[C@H](C)c3cccc(C(F)(F)F)c3C)c2cc1C1CCN(C(C)C)CC1 [Compound 236, (R)-6-(1-isopropylpiperidin-4-yl)-7-methoxy-2-methyl-N-(1-(2-methyl-3-(trifluoromethyl)phenyl)ethyl)pyrido [2,3-d]pyrimidin-4-amine]
IC50 [1, 5]: < 100 nM
IC50 [1, 6]: < 50 nM
DMPK-invitro-PPB (Mouse Unbound) [%] [2]: 0.11%
IC50 [3, 8]: ≤ 1000 nM
IC50 [3, 7]: < 500 nM
IC50 [4, 9]: ≤ 1000 nM
IC50 [4, 10]: < 500 nM

COc1nc2nc(C)nc(N[C@H](C)c3cccc(C(F)(F)F)c3C)c2cc1C1CCS(=O)(=O)CC1 [Compound 118, (R)-4-(7-methoxy-2-methyl-4-((1-(2-methyl-3-(trifluoromethyl)phenyl)ethyl)amino)pyrido[2,3-d]pyrimidin-6-yl)tetrahydro-2H-thiopyran 1,1-dioxide]
IC50 [1, 6]: < 50 nM
DMPK-invitro-PPB (Mouse Unbound) [%] [2]: 0.31%
IC50 [3, 8]: ≤ 1000 nM
IC50 [3, 7]: < 500 nM
IC50 [4, 9]: ≤ 1000 nM
IC50 [4, 10]: < 500 nM

COc1nc2ncnc(N[C@H](C)c3cccc(C(F)F)c3F)c2cc1N1CCS(=O)(=O)CC1 [Compound 339, (R)-4-(4-((1-(3-(difluoromethyl)-2-fluorophenyl)ethyl)amino)-7-methoxypyrido[2,3-d]pyrimidin-6-yl)thiomorpholine 1,1-dioxide]
IC50 [1, 5]: < 100 nM
IC50 [1, 6]: < 50 nM
DMPK-invitro-PPB (Mouse Unbound) [%] [2]: 15.32%
IC50 [3, 8]: ≤ 1000 nM
IC50 [4, 9]: ≤ 1000 nM
IC50 [4, 10]: < 500 nM

COc1nc2ncnc(N[C@H](C)c3cccc(C(F)(F)F)c3F)c2cc1C1CCS(=O)(=O)CC1 [Compound 375, (R)-4-(4-((1-(2-fluoro-3-(trifluoromethyl)phenyl)ethyl)amino)-7-methoxypyrido[2,3-d]pyrimidin-6-yl)tetrahydro-2H-thiopyran 1,1-dioxide]
IC50 [1, 5]: < 100 nM
IC50 [1, 6]: < 50 nM
DMPK-invitro-PPB (Mouse Unbound) [%] [2]: 2.67%
IC50 [3, 8]: ≤ 1000 nM
IC50 [3, 7]: < 500 nM
IC50 [4, 9]: ≤ 1000 nM
IC50 [4, 10]: < 500 nM

COc1nc2nc(C)nc(N[C@H](C)c3cccc(C(F)(F)F)c3F)c2cc1N1CCS(=O)(=O)CC1 [Compound 305, (R)-4-(4-((1-(2-fluoro-3-(trifluoromethyl)phenyl)ethyl)amino)-7-methoxy-2-methylpyrido[2,3-d]pyrimidin-6-yl)thiomorpholine 1,1-dioxide]
IC50 [1, 5]: < 100 nM
IC50 [1, 6]: < 50 nM
DMPK-invitro-PPB (Mouse Unbound) [%] [2]: 1.24%
IC50 [3, 8]: ≤ 1000 nM
IC50 [3, 7]: < 500 nM
IC50 [4, 9]: ≤ 1000 nM
IC50 [4, 10]: < 500 nM

COc1nc2nc(C)nc(N[C@H](C)c3cccc(C(F)(F)F)c3C)c2cc1N1CCN(C(C)C)CC1 [Compound 171, (R)-6-(4-isopropylpiperazin-1-yl)-7-methoxy-2-methyl-N-(1-(2-methyl-3-(trifluoromethyl)phenyl)ethyl)pyrido[2,3-d]pyrimidin-4-amine]
IC50 [1, 5]: < 100 nM
IC50 [1, 6]: < 50 nM
DMPK-invitro-PPB (Mouse Unbound) [%] [2]: 0.12%
IC50 [3, 8]: ≤ 1000 nM
IC50 [4, 9]: ≤ 1000 nM
IC50 [4, 10]: < 500 nM

COc1nc2nc(C)nc(N[C@H](C)c3cccc(C(F)(F)F)c3F)c2cc1C1CCN(C(C)C)CC1 [Compound 287, (R)-N-(1-(2-fluoro-3-(trifluoromethyl)phenyl)ethyl)-6-(1-isopropylpiperidin-4-yl)-7-methoxy-2-methylpyrido[2,3-d]pyrimidin-4-amine]
IC50 [1, 5]: < 100 nM
IC50 [1, 6]: < 50 nM
DMPK-invitro-PPB (Mouse Unbound) [%] [2]: 0.39%
IC50 [3, 8]: ≤ 1000 nM
IC50 [3, 7]: < 500 nM
IC50 [4, 9]: ≤ 1000 nM
IC50 [4, 10]: < 500 nM

COc1nc2nc(C)nc(N[C@H](C)c3cccc(C(F)(F)F)c3F)c2cc1C1CCS(=O)(=O)CC1 [Compound 120, (R)-4-(4-((1-(2-fluoro-3-(trifluoromethyl)phenyl)ethyl)amino)-7-methoxy-2-methylpyrido[2,3-d]pyrimidin-6-yl)tetrahydro-2H-thiopyran 1,1-dioxide]
IC50 [1, 5]: < 100 nM
IC50 [1, 6]: < 50 nM
DMPK-invitro-PPB (Mouse Unbound) [%] [2]: 0.73%
IC50 [3, 8]: ≤ 1000 nM
IC50 [3, 7]: < 500 nM
IC50 [4, 9]: ≤ 1000 nM
IC50 [4, 10]: < 500 nM

COc1nc2ncnc(N[C@H](C)c3cccc(C(F)(F)C(C)(C)O)c3F)c2cc1N1CCN(C(C)C)CC1 [Compound 273, (R)-1,1-difluoro-1-(2-fluoro-3-(1-((6-(4-isopropylpiperazin-1-yl)-7-methoxypyrido[2,3-d]pyrimidin-4-yl)amino)ethyl)phenyl)-2-methylpropan-2-ol]
IC50 [1, 5]: < 100 nM
IC50 [1, 6]: < 50 nM
DMPK-invitro-PPB (Mouse Unbound) [%] [2]: 12.22%
IC50 [3, 8]: ≤ 1000 nM
IC50 [3, 7]: < 500 nM
IC50 [4, 9]: ≤ 1000 nM
IC50 [4, 10]: < 500 nM

COc1nc2ncnc(N[C@H](C)c3cccc(C(F)(F)F)c3C)c2cc1C1CCN(C(C)C)CC1 [Compound 348, (R)-6-(1-isopropylpiperidin-4-yl)-7-methoxy-N-(1-(2-methyl-3-(trifluoromethyl)phenyl)ethyl)pyrido [2,3-d]pyrimidin-4-amine]
IC50 [1, 5]: < 100 nM
IC50 [1, 6]: < 50 nM
DMPK-invitro-PPB (Mouse Unbound) [%] [2]: 1.03%
IC50 [3, 8]: ≤ 1000 nM
IC50 [4, 9]: ≤ 1000 nM
IC50 [4, 10]: < 500 nM

CCN1CCC(c2cc3c(N[C@H](C)c4cccc(C(F)(F)F)c4C)ncnc3nc2OC)CC1 [Compound 353, (R)-6-(1-ethylpiperidin-4-yl)-7-methoxy-N-(1-(2-methyl-3-(trifluoromethyl)phenyl)ethyl)pyrido [2,3-d]pyrimidin-4-amine]
IC50 [1, 5]: < 100 nM
IC50 [1, 6]: < 50 nM
DMPK-invitro-PPB (Mouse Unbound) [%] [2]: 0.74%
IC50 [3, 8]: ≤ 1000 nM
IC50 [3, 7]: < 500 nM
IC50 [4, 9]: ≤ 1000 nM
IC50 [4, 10]: < 500 nM

COc1nc2ncnc(N[C@H](C)c3cccc(C(F)(F)F)c3F)c2cc1N1CCN(C(C)C)CC1 [Compound 159, (R)-N-(1-(2-fluoro-3-(trifluoromethyl)phenyl)ethyl)-6-(4-isopropylpiperazin-1-yl)-7-methoxypyrido[2,3-d] pyrimidin-4-amine]
IC50 [1, 5]: < 100 nM
IC50 [1, 6]: < 50 nM
DMPK-invitro-PPB (Mouse Unbound) [%] [2]: 3.43%
IC50 [3, 8]: ≤ 1000 nM
IC50 [3, 7]: < 500 nM
IC50 [4, 9]: ≤ 1000 nM
IC50 [4, 10]: < 500 nM
